From patent publication US20250235447A1, “METHODS FOR TREATING CARDIOVASCULAR CONDITIONS AND METHODS OF INCREASING THE EFFICIENCY OF CARDIAC METABOLISM” (IMBRIA PHARMACEUTICALS, INC., priority 2021, published 2025)
One block for each compound: values may come before it.

Columns and labels:
[1] = FIH study: safety and tolerability (adverse events, laboratory, vital signs, ECG)
[2] = FIH study, SAD part: plasma pharmacokinetics after single oral dose; settings: all blood samples of subjects that received IMB-1018972
[3] = Pharmacodynamic study in obese patients with Type 2 diabetes: preliminary safety data; format: in vivo, human
Experimental: (§1) This was a randomized study consisting of a population of 20 patients with Type 2 diabetes and a BMI≥30 kg/m^2. The first five patients were treated for four weeks; the subsequent 15 patients (patients 6-20) were treated for eight weeks (with five additional patients prn). Ten patients had hyperpolarized ^13C-pyruvate MRS.
The preliminary baseline characteristics of randomized participants is detailed in FIG. 52. The preliminary baseline characteristics of completers is detailed in FIG. 53. FIG. 54 details adverse events as of the data cut-off date of September 20. Nineteen patients were on the drug from approximately one to eight weeks. There were no SAEs. Seven subjects reported nine adverse events. Two subjects had three drug-related AEs. All AEs were mild or moderate in severity. […] Overall, the compound was well-tolerated.

[4] = 28-day dog toxicity study (NOAEL and exposure); format: in vivo; settings: from HED
Experimental: Based on the nonclinical toxicology data, it was considered that subjects in this clinical study were not at unreasonable risk of adverse effects. […] For a 60-kg individual, the NOAEL dose would be 6480 mg. With a 10-fold safety factor applied, this would allow for a maximum recommended starting dose (MRSD) of 648 mg/day.7,8 The planned starting dose in the current Phase 1 study was 50 mg, equivalent to 0.83 mg/kg/day for a 60-kg subject. This starting dose is less than 10% of the MRSD determined from the dog NOAEL and less than 1% of the dog NOAEL.
The relevant animal study was the 28-day dog study where the NOAEL for IMB-1018972 was 200 mg/kg/day.

[5] = test system: myocardial energetics and metabolism; assay: Pharmacodynamic study in obese patients with Type 2 diabetes (PCr/ATP, myocardial triglyceride, body weight); format: in vivo, human
Experimental: Results of a pharmacodynamic study to evaluate the impact of 200 mg BID of a composition of a compound with formula (X) on rest myocardial energetics (PCr/ATP) in obese individuals with type 2 diabetes are detailed in FIGS. 52-65. The key endpoints of the study were to evaluate the metabolic response, specifically the impact on PDH flux using hyperpolarized ^13C-pyruvate MRS, as a measure of the compound's ability to promote glucose oxidation and recouple glucose oxidation with glycolysis. Also assessed was the effect on cardiac systolic and diastolic function, measured by cardiac magnetic resonance (CMR) and transthoracic echocardiography (TTE), and the effect on cardiac steatosis using ^1H-MRS.
The primary objective is to evaluate the impact of 200 mg of formula (X) on rest and stress myocardial energetics (PCr/ATP). Other objectives include: to evaluate the metabolic response, specifically the impact on PDH flux using hyperpolarized ^13C-pyruvate MRS, as a measure of the compound's ability to promote glucose oxidation; to assess the effect on cardiac systolic and diastolic function, as measured by cardiac magnetic resonance (CMR) and transthoracic echocardiography (TTE); to measure the impact on myocardial steatosis.
as §1

[6] = human, in vivo
[7] = human, in vivo; remark: listed apart in the source
clinical = settings: human, in vivo, 50 mg
[8] = 200 mg, combined 4- and 8-week cohorts, interim data

Structure (SMILES): COc1ccc(CN2CCN(CCOC(=O)c3cccnc3)CC2)c(OC)c1OC [IMB-1018972]
Effect of fed dosing on number and incidence of TEAEs ([1]; FE arm of SAD part): appeared to attenuate the number and incidence of TEAEs
Subjects with TEAEs of flushing, SOC vascular disorders ([1]; MAD part): 33.3%
Subjects with TEAEs, SOC general disorders and administration site conditions ([1]; MAD part): 27.8%
Subjects with TEAEs, SOC musculoskeletal and connective tissue disorders ([1]; MAD part): 27.8%
Number of TEAEs of flushing (mild) ([1]; MAD part, 150 mg q12 h): 7
Subjects with TEAEs considered related to the study drug ([1]; MAD part, 6 of 18): 33.3%
Subjects with TEAEs considered not related to the study drug ([1]; MAD part, 11 of 18): 61.1%
Subjects with TEAEs, SOC gastrointestinal disorders ([1]; SAD part): 16.7%
Subjects with TEAEs, SOC general disorders and administration site conditions ([1]; SAD part): 20.8%
Subjects with TEAEs, SOC nervous system disorders ([1]; SAD part): 29.2%
Subjects with TEAEs, SOC skin and subcutaneous tissue disorders ([1]; SAD part): 16.7%
Subjects with TEAEs, SOC vascular disorders ([1]; SAD part): 29.2%
Subjects with drug-related TEAEs of flushing (vascular disorders) ([1]; SAD part): 25%
Subjects with drug-related TEAEs, nervous system disorders ([1]; SAD part): 16.7%
Subjects with TEAEs considered related to the study drug ([1]; SAD part, 7 of 24): 29.2%
Subjects reporting flushing ([1]; single 150 mg IMB-1018972, fasted, FE arm): 2
Subjects reporting flushing ([1]; single 400 mg IMB-1018972, fasted): Four
IMB-1018972 (parent) in plasma samples [2]: could be measured in only few plasma samples
Flushing ([3]; nineteen patients on drug): no flushing reported
Number of adverse events ([3]; nineteen patients on drug): nine
Number of drug-related AEs ([3]; nineteen patients on drug): three
Subjects reporting adverse events ([3]; nineteen patients on drug): Seven
Subjects with drug-related AEs ([3]; nineteen patients on drug): Two
SAEs ([3]; nineteen patients on drug about one to eight weeks): no SAEs
Tolerability ([3]; overall): well-tolerated
NOAEL dose for a 60-kg individual [4]: 6480 mg
Cardiac energetics (PCr/ATP) [5, 8]: significant and meaningful increase
Myocardial steatosis (myocardial triglycerides) [5, 8]: highly significant reduction
Mean fasting glucose ([5]; short-term administration, cohorts of the study): significant reduction
Body weight ([5]; short-term administration, combined 4- and 8-week cohorts): significant weight loss

Time at which detectable concentrations generally appeared [6]: 15 to 30 min
Geometric mean Cmax lower, MAD Day 1 150 mg fed vs SAD single 150 mg fed [7]: 32%
Tmax (clinical): 8 h
Structure (SMILES): COc1ccc(CN2CCNCC2)c(OC)c1OC [trimetazidine]
